The values below come from patent US10906924B2, “Modulators of indoleamine 2,3-dioxygenase” (GLAXOSMITHKLINE INTELLECTUAL PROPERTY DEVELOPMENT LIMITED, priority 2017, dated 2021).

The target of the test is indoleamine 2,3-dioxygenase (IDO1) (Homo sapiens, UniProt P14902). In words: PBMC IDO1 assay (kynurenine by mass spectrometry). It counts as cell-based. The note with it: human PBMC stimulated with IFN-γ and LPS, 2 days incubation, kynurenine detected by mass spectrometry; read-out: IDO1 PBMC pIC50 (converted).
Chain of indoleamine 2,3-dioxygenase (IDO1) (P14902 whole entry): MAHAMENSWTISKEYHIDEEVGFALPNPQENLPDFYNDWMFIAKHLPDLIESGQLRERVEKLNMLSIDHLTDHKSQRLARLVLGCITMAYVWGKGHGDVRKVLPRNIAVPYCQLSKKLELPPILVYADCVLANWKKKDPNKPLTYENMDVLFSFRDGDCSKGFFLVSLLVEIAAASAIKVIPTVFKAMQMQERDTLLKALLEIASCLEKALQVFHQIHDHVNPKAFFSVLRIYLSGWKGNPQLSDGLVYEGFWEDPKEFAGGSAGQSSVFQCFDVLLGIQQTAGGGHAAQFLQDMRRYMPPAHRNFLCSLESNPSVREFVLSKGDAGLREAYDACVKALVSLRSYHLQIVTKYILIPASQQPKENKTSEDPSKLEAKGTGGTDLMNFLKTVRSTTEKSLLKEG
Regarding `COC(=O)N1CCC2(CC1)C[C@H](NC(=O)c1cccc3cn[nH]c13)c1cc(Br)ccc1O2` [Example 5, (S)-methyl 6-bromo-4-(1H-indazole-7-carboxamido)spiro[chroman-2,4′-piperidine]-1′-carboxylate], the IC50 was 5.01 nM.

With `CCOC(=O)N1CCC2(CC1)C[C@H](NC(=O)c1cccc3c(COC(=O)CCC(=O)O)[nH]nc13)c1cc(Br)ccc1O2` [Example 60, (S)-4-((7-((6-bromo-1′-(ethoxycarbonyl)spiro[chromane-2,4′-piperidin]-4-yl)carbamoyl)-1H-indazol-3-yl)methoxy)-4-oxobutanoic acid], the IC50 was 1.26 nM.

In the case of `CCOC(=O)N1CCC2(CC1)C[C@H](NC(=O)c1cccc3c(CO)n[nH]c13)c1cc(Br)ccc1O2` [Example 59, ethyl (S)-6-bromo-4-(3-(hydroxymethyl)-1H-indazole-7-carboxamido) spiro[chromane-2,4′-piperidine]-1′-carboxylate], the IC50 was 0.794 nM.

For the compound `CCOC(=O)N1CCC2(CC1)C[C@H](NC(=O)c1cccc(O)n1)c1cc(Br)ccc1O2` [Example 25, (S)-ethyl 6-bromo-4-(6-hydroxypicolinamido)spiro[chroman-2,4′-piperidine]-1′-carboxylate], the IC50 was 100 nM.

With `COC(=O)N1CCC2(CC1)C[C@H](NC(=O)c1cccc3cn[nH]c13)c1nc(OC)ccc1O2` [Example 57, methyl (S)-4′-(1H-indazole-7-carboxamido)-6′-methoxy-3′,4′-dihydrospiro[piperidine-4,2′-pyrano[3,2-b]pyridine]-1-carboxylate], the IC50 was 10 nM.

In the case of `COC(=O)N1CCC2(CC1)C[C@H](NC(=O)c1cccc3cc[nH]c13)c1cc(Br)ccc1O2` [Example 4, (S)-methyl 6-bromo-4-(1H-indole-7-carboxamido)spiro[chroman-2,4′-piperidine]-1′-carboxylate], the IC50 was 3.98 nM.

Take `CCOC(=O)N1CCC2(CC1)C[C@H](NC(=O)c1cccc3[nH]ccc13)c1cc(Br)ccc1O2` [Example 8, (S)-ethyl 6-bromo-4-(1H-indole-4-carboxamido)spiro[chroman-2,4′-piperidine]-1′-carboxylate]: the IC50 was 5.01 nM.

Take `CCOC(=O)N1CCC2(CC1)CC(NC(=O)c1cccc3nc[nH]c13)c1ccccc1O2` (centres unmarked) [Example 39, ethyl 4-(1H-benzo[d]imidazole-7-carboxamido)spiro[chroman-2,4′-piperidine]-1′-carboxylate]: the IC50 was 398 nM.

Regarding `CCOC(=O)N1CCC2(CC1)C[C@H](NC(=O)c1ncc[nH]1)c1cc(Br)ccc1O2` [Example 32, (S)-ethyl 6-bromo-4-(1H-imidazole-2-carboxamido)spiro[chroman-2,4′-piperidine]-1′-carboxylate], the IC50 is 200 nM.

With `CCOC(=O)N1CCC2(CC1)CC(NC(=O)c1cccc3cn[nH]c13)c1cc(CO)ccc1O2` (centres unmarked) [Example 18, ethyl 6-(hydroxymethyl)-4-(1H-indazole-7-carboxamido)spiro[chroman-2,4′-piperidine]-1′-carboxylate], the IC50 is 39.8 nM.

For `CCOC(=O)N1CCC2(CC1)C[C@H](NC(=O)c1cccc3cn(COP(=O)(O)O)nc13)c1cc(Br)ccc1O2` [Example 50, 2-amino-2-(hydroxymethyl)propane-1,3-diol hemi((S)-(7-((6-bromo-1-(ethoxycarbonyl)spiro[chroman-2,4′-piperidin]-4-yl)carbamoyl)-2H-indazol-2-yl)methyl phosphate)], the IC50 is 126 nM.

For `CCOC(=O)N1CCC2(CC1)C[C@H](NC(=O)c1cccc3cn(COP(=O)(O)O)nc13)c1cc(Br)ncc1O2` [Example 58, (S)-ethyl 6′-bromo-4′-(2-((phosphonooxy)methyl)-2H-indazole-7-carboxamido)-3′,4′-dihydrospiro[piperidine-4,2′-pyrano[2,3-c]pyridine]-1-carboxylate], the IC50 was 501 nM.

Consider `CCOC(=O)N1CCC2(CC1)C[C@H](NC(=O)c1cccc3cn(COP(=O)(O)O)nc13)c1ccccc1O2` [Example 55, 2-amino-2-(hydroxymethyl)propane-1,3-diol hemi((S)-(7-((1′-(ethoxycarbonyl)spiro[chroman-2,4′-piperidin]-4-yl)carbamoyl)-2H-indazol-2-yl)methyl phosphate)], for which the IC50 is 126 nM.

Consider `CCOC(=O)N1CCC2(CC1)CC(NC(=O)c1ncccn1)c1ccccc1O2` (centres unmarked) [Example 45, ethyl 4-(pyrimidine-2-carboxamido)spiro[chroman-2,4′-piperidine]-1′-carboxylate], for which the IC50 was 794 nM.

Take `CCOC(=O)N1CCC2(CC1)CC(Nc1nnc(C(F)(F)F)s1)c1ccccc1O2` (centres unmarked) [Example 40, ethyl 4-((5-(trifluoromethyl)-1,3,4-thiadiazol-2-yl)amino)spiro[chroman-2,4′-piperidine]-1′-carboxylate]: the IC50 was 398 nM.

For the compound `CCOC(=O)N1CCC2(CC1)CC(NC(=O)c1cccc3cn[nH]c13)c1nc(OC)ccc1O2` (centres unmarked) [Example 9, ethyl 4′-(1H-indazole-7-carboxamido)-6′-methoxy-3′,4′-dihydrospiro[piperidine-4,2′-pyrano[3,2-b]pyridine]-1-carboxylate], the IC50 was 10 nM.

`CCOC(=O)N1CCC2(CC1)CC(NC(=O)c1ccnn1C)c1ccccc1O2` (centres unmarked) [Example 43, ethyl 4-(1-methyl-1H-pyrazole-5-carboxamido)spiro[chroman-2,4′-piperidine]-1′-carboxylate]: the IC50 was 631 nM.

Turning to `CCOC(=O)N1CCC2(CC1)CC(NC(=O)c1cncc3cn[nH]c13)c1ccccc1O2` (centres unmarked) [Example 26, ethyl 4-(1H-pyrazolo[4,3-c]pyridine-7-carboxamido)spiro[chroman-2,4′-piperidine]-1′-carboxylate], the IC50 was 126 nM.

Consider `CCOC(=O)N1CCC2(CC1)CC(NC(=O)c1ccccn1)c1ccccc1O2` (centres unmarked) [Example 34, ethyl 4-(picolinamido)spiro[chroman-2,4′-piperidine]-1′-carboxylate], for which the IC50 was 251 nM.

`CCOC(=O)N1CCC2(CC1)CC(NC(=O)c1cccnc1)c1nc(OC)ccc1O2` (centres unmarked) [Example 35, ethyl 6′-methoxy-4′-(nicotinamido)-3′,4′-dihydrospiro[piperidine-4,2′-pyrano[3,2-b]pyridine]-1-carboxylate]: the IC50 is 251 nM.

On to `CCOC(=O)N1CCC2(CC1)CC(NC(=O)c1cccc3cn[nH]c13)c1cc(Br)ncc1O2` (centres unmarked) [Example 16, ethyl 6′-bromo-4′-(1H-indazole-7-carboxamido)-3′,4′-dihydrospiro[piperidine-4,2′-pyrano[2,3-c]pyridine]-1-carboxylate], for which the IC50 was 31.6 nM.

For the compound `CCOC(=O)N1CCC2(CC1)CC(NC(=O)c1cccc3cn[nH]c13)c1ccncc1O2` (centres unmarked) [Example 33, ethyl 4′-(1H-indazole-7-carboxamido)-3′,4′-dihydrospiro[piperidine-4,2′-pyrano[2,3-c]pyridine]-1-carboxylate], the IC50 is 200 nM.

As for `CCOC(=O)N1CCC2(CC1)CC(NC(=O)c1cccc3cn[nH]c13)c1ncccc1O2` (centres unmarked) [Example 29, ethyl 4′-(1H-indazole-7-carboxamido)-3′,4′-dihydrospiro[piperidine-4,2′-pyrano[3,2-b]pyridine]-1-carboxylate], the IC50 was 158 nM.

Consider `O=C(N[C@H]1CC2(CCN(C(=O)Oc3ccccc3)CC2)Oc2ccc(Br)cc21)c1cccc2cn[nH]c12` [Example 31, (S)-phenyl 6-bromo-4-(1H-indazole-7-carboxamido)spiro[chroman-2,4′-piperidine]-1′-carboxylate], for which the IC50 is 200 nM.

For `COC(=O)N1CCC2(CC1)C[C@H](NC(=O)c1cccc3cn[nH]c13)c1ccccc1O2` [Example 54, methyl (S)-4-(1H-indazole-7-carboxamido)spiro[chromane-2,4′-piperidine]-1′-carboxylate], the IC50 was 20 nM.

For the compound `CCOC(=O)N1CCC2(CC1)C[C@H](NC(=O)c1cccc3cnn(C(=O)OCC)c13)c1cc(Br)ccc1O2` [Example 51, ethyl (S)-6-bromo-4-(1-(ethoxycarbonyl)-1H-indazole-7-carboxamido)spiro[chromane-2,4′-piperidine]-1′-carboxylate], the IC50 is 10 nM.

Turning to `CCCC(=O)N1CCC2(CC1)C[C@H](NC(=O)c1cccc3cn[nH]c13)c1cc(Br)ccc1O2` [Example 22, (S)—N-(6-bromo-1′-butyrylspiro[chroman-2,4′-piperidin]-4-yl)-1H-indazole-7-carboxamide], the IC50 is 79.4 nM.

Take `CCOC(=O)N1CCC2(CC1)CC(NC(=O)c1cccc3cc[nH]c13)c1ccc(Br)cc1O2` (centres unmarked) [Example 24, ethyl 7-bromo-4-(1H-indole-7-carboxamido)spiro[chroman-2,4′-piperidine]-1′-carboxylate]: the IC50 was 100 nM.

`CCOC(=O)N1CCC2(CC1)CC(NC(=O)c1cccnc1)c1ccccc1O2` (centres unmarked) [Example 41, ethyl 4-(nicotinamido)spiro[chroman-2,4′-piperidine]-1′-carboxylate]: the IC50 was 501 nM.
